Measurements from US20230398125A1, “TREATING HEPATITIS” (Albireo AB, priority 2022, published 2023).
Where two headings read alike, the source gives them in different places.

Tests used:
ASBT = biological target: T1, ASBT (Homo sapiens, UniProt Q12908); experiment: [3H]taurocholate uptake, apparent Ki for ASBT; type: cell-based; settings: read-out: inhibitory constant (Ki) for ASBT
T1 construct: expressed in transfected cells
T1 sequence (Q12908 1-348): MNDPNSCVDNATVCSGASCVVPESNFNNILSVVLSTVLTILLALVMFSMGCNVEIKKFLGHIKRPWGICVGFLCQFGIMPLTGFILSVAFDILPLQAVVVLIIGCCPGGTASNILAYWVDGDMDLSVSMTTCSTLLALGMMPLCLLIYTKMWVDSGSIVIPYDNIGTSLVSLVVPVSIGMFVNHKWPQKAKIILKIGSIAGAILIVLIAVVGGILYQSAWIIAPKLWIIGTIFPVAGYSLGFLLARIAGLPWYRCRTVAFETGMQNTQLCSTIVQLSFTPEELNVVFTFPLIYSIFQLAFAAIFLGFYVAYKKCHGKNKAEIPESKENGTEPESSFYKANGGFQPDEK

HBV genotype C = experiment: Serum HBsAg in HBV-infected PXB mice; type: in vivo, hepatitis B virus; settings: 10 mg/kg and 30 mg/kg, Day 7
Procedure: Target volume of blood was collected from all surviving animals under isoflurane anesthesia via the retro-orbital plexus/sinus using Intramedic™ Polyethylene Tubing at each time point. Two microliters (2 μL) from the collected blood were used for human albumin measurements. The remaining blood was centrifuged to separate serum to be used for analyzing the indicated biomarkers. Blood samples were collected according to Table 8.
The individual blood samples of the animals were left at room temperature for at least 5 minutes to coagulate and then centrifuged at 13200×g, 4° C. for 3 minutes to obtain serum. The serum was divided into separate labeled microtubes and stored at −80° C. until analysis.
Serum HBsAg concentration was determined by SRL, Inc. (Tokyo, Japan) based on a Chemiluminescent Enzyme Immuno Assay (CLEIA) developed by Fujirebio ([…] HBsAg-HQ, […]® Prestoll). The dilution factor was 30 and 10, and the measurement range of this assay was between 0.005 and 150 IU/mL. For the 30-fold diluted samples, the measurement range was adjusted to be between 0.15 and 4500 IU/mL. And for the 10-fold diluted samples, the measurement range was adjusted to be between 0.05 and 1500 IU/mL. The lowest quantification limit of this assay was 0.15 IU/mL serum.

HBV (genotype D) = experiment: In vitro HBV infection of NTCP-HepG2 cells, second study (HBeAg, HBc); type: cell-based, hepatitis B virus; settings: for IC50: Hepatitis B virus
Procedure: In a second study, recombinant HBV (genotype D) was produced in vitro as described in the literature (König et al. 2014). […] The myr-preS12-48 peptide (500 nM, genotype D) was used as control inhibitor. All infection experiments were performed in NTCP-HepG2 cells cultured in HGM in the presence of the corresponding compounds with different concentrations, 4% PEG-8000 (Sigma-Aldrich, Darmstadt, Germany), 2% DMSO (Carl Roth, Karlsruhe, Germany) and 100 ng/ml EGF (PeproTech, Hamburg, Germany) as final concentration each. Recombinant HBV was diluted in HGM to a final concentration of 2.5×10^10 HBV-genome copies per well (7×10^8 IU per well) and was added to the cells for 6 h. Subsequently, cells were washed with HGM and cultured in HGM supplemented with 2% DMSO. Medium was changed every 2-3 days until cells were fixed at day 9 p.i. with 3.8% paraformaldehyde (Sigma-Aldrich) in PBS, for 30 min at RT. The cells were immunostained at 37° C. for 1 h (1:400 dilution). For detection of HBV core (HBc) protein expression, a polyclonal anti-HBc antiserum from an immunized guinea pig (1:500 dilution, Eurogentec, Seraing, Belgium) was used as primary antibody and an Alexa Fluor 488-conjugated goat anti-guinea-pig-IgG-antibody (1:400 dilution, Thermo Fisher Scientific) as secondary antibody. Nuclei were stained with DAPI (0.5 μg/ml, Thermo Fisher Scientific). […] HBV-infected cells secrete the soluble HBeAg, which is a widely-accepted quantitative marker for productive HBV infection in cell culture experiments. In this study, HBeAg secreted from infected cells into the cell culture supernatant was determined of supernatant collected from day 5 to 9 p.i. using the Architect HBeAg assay, an automated in vitro diagnostic system (Abbott Laboratories, Wiesbaden, Germany).
Determination of IC50 values was done by nonlinear regression analysis using the equation log(inhibitor) vs. response settings of the GraphPad Prism 6.0 software (GraphPad). Data of [^3H]TC transport and [^3H]preS1 binding are expressed as means±SD from quadruplicate determinations. […]

CCCCC1CN(c2ccccc2)c2cc(SC)c(O/C=C(\F)C(=O)O)cc2S(=O)(=O)N1C (centres unmarked) [Compound 1, (Z)-3-((3-butyl-2-methyl-7-(methylthio)-1,1-dioxido-5-phenyl-2,3,4,5-tetrahydro-1,2,5-benzothiadiazepin-8-yl)oxy)-2-fluoroacrylic acid]
Ki (ASBT): 2410 nM | serum HBsAg compared to controls (HBV genotype C): lower | IC50 (HBV (genotype D); read-out: IC50 in vitro HBV infection (HBc)): 16.1 nM | IC50 (HBV (genotype D); read-out: IC50 in vitro HBV infection (HBeAg)): 19.1 nM | HBeAg secretion relative to cut off value (HBV (genotype D); second study, highest inhibitor concentration 1000 nM): above the cut off value
